The source of these data is publication PMC3070799 (Neuropharmacology, 2011).

Like-named read-outs stand apart in the source and are kept apart here.

The target of one experiment is T1, human 5-HT3A receptors (Homo sapiens, UniProt P46098).
T1 construct: expressed in transfected cells; host or cells: Xenopus laevis oocytes (cRNA from pGEMHE)
T1 sequence (P46098 24-478): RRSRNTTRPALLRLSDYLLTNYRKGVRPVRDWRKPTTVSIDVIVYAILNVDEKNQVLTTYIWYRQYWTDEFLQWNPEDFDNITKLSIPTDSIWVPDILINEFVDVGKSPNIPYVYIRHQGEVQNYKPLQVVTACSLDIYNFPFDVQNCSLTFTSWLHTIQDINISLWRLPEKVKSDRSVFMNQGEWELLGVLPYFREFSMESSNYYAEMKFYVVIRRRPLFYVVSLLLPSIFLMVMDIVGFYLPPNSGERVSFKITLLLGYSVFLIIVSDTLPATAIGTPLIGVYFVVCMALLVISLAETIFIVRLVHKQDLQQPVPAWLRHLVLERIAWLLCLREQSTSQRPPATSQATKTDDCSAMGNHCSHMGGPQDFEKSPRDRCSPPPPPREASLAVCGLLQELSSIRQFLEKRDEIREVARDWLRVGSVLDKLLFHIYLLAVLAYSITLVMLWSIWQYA
Nature of the experiment: Two-electrode voltage clamp of 5-HT-induced currents in Xenopus oocytes, incl. co-application. It is filed as cell-based. On the procedure: (§1) Stage V and VI oocytes were injected with 50 nl of ∼300 ng μl^−1 cRNA, and currents were recorded 1–4 days post-injection. A ratio of 1:3 (A:B) was used for the expression of heteromeric 5-HT3 receptors.
(§2) Xenopus laevis oocyte positive females were purchased from NASCO (Fort Atkinson, Wisconsin, USA) and maintained according to standard methods.
(§3) Currents were filtered at a frequency of 1 kHz. Micro-electrodes were fabricated from borosilicate glass (GC120TF-10, Harvard Apparatus, Edenbridge, Kent, UK) using a two stage horizontal pull (P-87, Sutter Instrument Company, California, USA) and filled with 3 M KCl. […] Oocytes were perfused with saline at a rate of 15 ml min^−1. Drug application was via a simple gravity fed system calibrated to run at the same rate. Extracellular saline contained (mM), 96 NaCl, 2 KCl, 1 MgCl2 and 5 mM HEPES; adjusted to pH 7.4 with NaOH.
(§4) Analysis and curve fitting was performed using Prism V3.02 (GraphPad Software, San Diego, California, USA, www.graphpad.com). Concentration-response data for each oocyte was normalised to the maximum current for that oocyte. For inhibition curves, antagonists were routinely co-applied in the presence of agonist. For PXN, oocytes were also pre-treated with the compound for 20 s. A 2 min wash was used between drug applications. The mean and S.E.M. for a series of oocytes was plotted against agonist or antagonist concentration and iteratively fitted (GraphPad Prism v3.02) to the following Hill equation:(1) IA=Imin+Imax−Imin/1+10^nH(logA50−logA) where A is the concentration of ligand present; IA is the current in the presence of ligand concentration A; Imin is the current when A = 0; Imax is the current when A = ∞ , A50 is the concentration of A which evokes a current equal to (Imax + Imin)/2; and nH is the Hill coefficient. Results are presented as mean ± S.E.M.. Statistical analysis was performed using ANOVA in conjunction with a Dunnett’s post-hoc test.
97) • Scenario 1: Where compounds share a binding site it was assumed that the extent of binding would be determined by a competitive interaction between the compounds such that the proportion of binding sites occupied (Pocc) in the presence of two competing compounds is given by the following expression: (2) Pocc=AKA+BKB/1+AKA+BKB where A and B are the concentrations of two ligands and KA and KB are their affinity constants respectively.
In each individual experiment, for each combination of inhibitors, data values were obtained for IA, IB and IAB. From IA and IB predicted values of IAB1 and IAB2 were also derived. A two-way ANOVA was performed on values of IAB, IAB1 and IAB2 in which the distinction between IAB, IAB1 and IAB2 was treated as a fixed factor and the variation in levels of inhibition between experiments was treated as a random factor. Where the ANOVA indicated a significant difference (P < 0.05) between IAB, IAB1 and IAB2 a post-hoc analysis was carried out using the Waller–Duncan method to identify homogenous subsets with a significance level of 0.05 and a Type I /Type II error ratio if 100.
Our models were based on the following assumptions: 1. that the channel blocking compounds only effect the response that is seen when the channel is open. […] In the case of condition 5 it is possible that the binding of one compound may prevent access of another to its own site. However, in practice this will not influence the analysis since the functional consequence of the binding of both compounds compared to one will be the same, namely complete channel blockade.
A general note: Two-electrode voltage clamp is typically applied to oocytes expressing channels or transporters.

For the next experiment, the target named is T2, human 5-HT3AB receptors (Homo sapiens, UniProt O95264+P46098).
T2 construct: expressed in transfected cells; host or cells: Xenopus laevis oocytes (cRNA from pGEMHE)
T2 sequence (P46098 24-478): T1 sequence (P46098 24-478)
T2 sequence (O95264 22-441): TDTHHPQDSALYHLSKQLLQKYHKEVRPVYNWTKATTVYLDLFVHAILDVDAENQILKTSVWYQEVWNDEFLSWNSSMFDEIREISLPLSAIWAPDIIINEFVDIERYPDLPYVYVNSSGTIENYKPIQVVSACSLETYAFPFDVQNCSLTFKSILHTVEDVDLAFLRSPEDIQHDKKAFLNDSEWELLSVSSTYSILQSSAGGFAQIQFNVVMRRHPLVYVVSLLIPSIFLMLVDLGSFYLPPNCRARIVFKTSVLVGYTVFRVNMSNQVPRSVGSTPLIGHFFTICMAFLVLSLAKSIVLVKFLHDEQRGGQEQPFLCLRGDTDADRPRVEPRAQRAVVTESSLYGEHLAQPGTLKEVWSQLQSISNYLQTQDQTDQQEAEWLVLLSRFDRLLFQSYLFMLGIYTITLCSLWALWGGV
Nature of the experiment: Two-electrode voltage clamp of 5-HT-induced currents in Xenopus oocytes. It is filed as cell-based. On the procedure:
as §1, §2, §3, §4

For another experiment, the target named is glycine α1 receptors. More on the design: method as in Yang et al., 2007. Conditions: ref Yang et al., 2007; cited from earlier work.
The target in the next experiment is glycine α1β receptors. More on the design: method as in Yang et al., 2007. The following applies: ref Yang et al., 2007; cited from earlier work.
[1] abbreviates: abstract, 5-HT-induced responses, Xenopus oocytes, read-out: IC50.
Where [2] appears, read: read-out: inhibition at the highest concentration used.

As for `CC(C)(O)[C@@H]1[C@H]2OC(=O)[C@@H]1[C@]1(O)C[C@H]3O[C@]34C(=O)O[C@H]2[C@]14C` [PTN, picrotin], the IC50 (as a rule, the concentration that gives 50% inhibition) at human 5-HT3A receptors is 470 µM; against human 5-HT3AB receptors (IC50, inhibition of 5-HT EC50 response (28 μM 5-HT), oocytes) it was 2900 µM; on human 5-HT3AB receptors (pIC50, inhibition of 5-HT EC50 response (28 μM 5-HT), oocytes), 2950 µM; on glycine α1 receptors, roughly 5 µM; on glycine α1β receptors, roughly 30 µM. Also, the “ratio of current amplitudes at +40 mV relative to −40 mV (voltage-dependence)” value at human 5-HT3A receptors (compared with absence of antagonist, Fig. 2E) was “unaltered”. Besides, the Hill slope (commonly a measure of the steepness of the concentration-response curve) is on record as 1.33 ± 0.15 on human 5-HT3A receptors (concentration-inhibition curve, 1.7 μM 5-HT) and 0.99 ± 0.07 at human 5-HT3AB receptors (concentration-inhibition curve, 28 μM 5-HT).
For `C[C@@H]1C(=O)O[C@H]2C[C@@]34[C@H]5C[C@@H](C(C)(C)C)[C@]36[C@@H](OC(=O)[C@@H]6O)O[C@@]4(C(=O)O5)[C@]21O` [GA, ginkgolide A], at human 5-HT3A receptors (1 mM, seen in the 5-HT3A receptor only), the “inhibition (in words)” value is “minimal inhibition”. Moreover, the IC50 is greater than 1000 µM at human 5-HT3A receptors (setting [1]); greater than 1000 µM at human 5-HT3A receptors (inhibition of 5-HT EC50 response (1.7 μM 5-HT), oocytes, read-out: IC50); greater than 1000 µM at human 5-HT3AB receptors (setting [1]); greater than 1000 µM on human 5-HT3AB receptors (inhibition of 5-HT EC50 response (28 μM 5-HT), oocytes, read-out: IC50). Further, the inhibition at 1000 µM at human 5-HT3A receptors (setting [2]) and on human 5-HT3AB receptors (setting [2]) was no more than 50% throughout.
